Source: patent EP0166986A1, “Disubstituted 3,7-diaryl-1,5,3,7-dioxadiazocines, and process for their preparation” (Deutsches Krebsforschungszentrum Stiftung des öffentlichen …, priority 1984, dated 1986)

What was measured:
[1] = test system: S. Typhimurium Stämmen; experiment: Mutagenicity test (Ames test), summary statements not tied to one strain; type: cell-based; details: for Mutagenität: S. Typhimurium strains, overall result in words
Experimental: (§1) • a) Mutagenitätsprüfungen Die Versuchsverbindung, gelöst in 40 µl an Dimethylsulphoxid und 100 µl eines Übernacht-Kulturmediums wurde zu 500 µl eines S9-Gemisches gegeben das 100 µl Leber S9 von mit Aroclor behandelten männlichen BD VI Ratten, 50 µl 0,15 M KC1 - 5 mM Sørensen Puffer pH 7,4 , […] Sørensen Phosphat Puffer (pH 7,4), […] NADP^+, 2,5 µmol Glukose-6-phosphat und […] MgC12 enthält. Das Gemisch wurde bei 37°C 30 Minuten lang unter Schütteln vorinkubiert und dann mit 2 ml histidinarmem Weichagar für die Plattenbildung auf minimalem Glukoseagar kombiniert. Die Anzahl der Revertanten wurde nach 48-stündiger Inkubation bei 37°C gezählt.
(§2) Mutagenität von synthetischen zyklischen Dioxadiazocinen in S. Typhimurium Stämmen. • a) Die meisten Zahlen entsprechen Mittelwerten aus zwei Versuchsreihen, die je dreifach gemacht wurden. Die Anzahl der spontanen Revertanten pro Platte (in Gegenwart des Lösungsmittels) wurde abgezogen. • b) AS: die Versuche wurden in Gegenwart (+) oder in Abwesenheit (-) eines metabolischen Aktivierungssystems aus S9 Rattenleber durchgeführt. • c) Die Konzentration bei welcher die untersuchten Verbindungen in S9-Mischung ausfielen.

[2] = test system: TA100; experiment: Mutagenicity test (Ames test), preincubation with or without rat liver S9; type: cell-based, S. Typhimurium
Experimental: as §1, §2

[3] = test system: TA98; experiment: as above; type: cell-based, S. Typhimurium
Experimental: as §1, §2

[4] = TA100, +AS (rat liver S9), 30 µg pro Platte, spontaneous revertants subtracted
[5] = TA100, +AS (rat liver S9), 100 µg pro Platte, spontaneous revertants subtracted (pp'-CH3O CO precipitated in S9 mix)
[6] = TA100, +AS (rat liver S9), 300 µg pro Platte, compounds precipitated in S9 mix, spontaneous revertants subtracted
[7] = TA100, -AS, 30 µg pro Platte, spontaneous revertants subtracted
[8] = TA100, -AS, 100 µg pro Platte, spontaneous revertants subtracted
[9] = TA100, -AS, 300 µg pro Platte, spontaneous revertants subtracted
[10] = TA98, +AS (rat liver S9), 30 µg pro Platte, spontaneous revertants subtracted
[11] = TA98, +AS (rat liver S9), 100 µg pro Platte, spontaneous revertants subtracted (pp'-CH3O CO precipitated in S9 mix)
[12] = TA98, +AS (rat liver S9), 300 µg pro Platte, compounds precipitated in S9 mix, spontaneous revertants subtracted
[13] = TA98, -AS, 30 µg pro Platte, spontaneous revertants subtracted
[14] = TA98, -AS, 100 µg pro Platte, spontaneous revertants subtracted
[15] = TA98, -AS, 300 µg pro Platte, spontaneous revertants subtracted

Structure (SMILES) | Mutagenität [1] | Anzahl der Revertanten pro Platte [2, 4] [Revertanten pro Platte] | Anzahl der Revertanten pro Platte [2, 5] [Revertanten pro Platte] | Anzahl der Revertanten pro Platte [2, 6] [Revertanten pro Platte] | Anzahl der Revertanten pro Platte [2, 7] [Revertanten pro Platte] | Anzahl der Revertanten pro Platte [2, 8] [Revertanten pro Platte] | Anzahl der Revertanten pro Platte [2, 9] [Revertanten pro Platte] | Anzahl der Revertanten pro Platte [3, 10] [Revertanten pro Platte] | Anzahl der Revertanten pro Platte [3, 11] [Revertanten pro Platte] | Anzahl der Revertanten pro Platte [3, 12] [Revertanten pro Platte] | Anzahl der Revertanten pro Platte [3, 13] [Revertanten pro Platte] | Anzahl der Revertanten pro Platte [3, 14] [Revertanten pro Platte] | Anzahl der Revertanten pro Platte [3, 15] [Revertanten pro Platte] | further results
O=[N+]([O-])c1ccc(N2COCN(c3ccc([N+](=O)[O-])cc3)COC2)cc1 [pp'-NO2] | mutagen | 78 | 195 | 357 | 31 | 100 | 206 | 88 | 280 | 507 | 163 | 373 | 839 | direkte Mutagenität ([1]; without metabolic activation, result in words): direkt mutagen; Anzahl der Revertanten pro Platte ([2]; TA100, +AS (rat liver S9), 10 µg pro Platte, spontaneous revertants subtracted): 22 Revertanten pro Platte; Anzahl der Revertanten pro Platte ([2]; TA100, -AS, 10 µg pro Platte, spontaneous revertants subtracted): 13 Revertanten pro Platte; Mutagenität (Vergleich der Verbindungen) ([2]; TA100, rank among the three tested compounds): aktivste Verbindung; Mutagenität der reaktiven metabolischen Spezies ([2]; with metabolic activation, TA100 compared with TA98): nur in TA100 mutagen oder stärker mutagen; Anzahl der Revertanten pro Platte ([3]; TA98, +AS (rat liver S9), 10 µg pro Platte, spontaneous revertants subtracted): 37 Revertanten pro Platte; Anzahl der Revertanten pro Platte ([3]; TA98, -AS, 10 µg pro Platte, spontaneous revertants subtracted): 65 Revertanten pro Platte; Mutagenität (Vergleich der Verbindungen) ([3]; TA98, rank among the three tested compounds): aktivste Verbindung; direkte Mutagenität ([3]; without metabolic activation, TA98 compared with TA100): höher in TA98
FC(F)(F)c1ccc(N2COCN(c3ccc(C(F)(F)F)cc3)COC2)cc1 [pp'-CF3, para-Trifluormethyl-3,7-diphenyl-1,5,3,7-dioxadiazocin] | mutagen | 44 | 86 | 98 | 8 | 14 | 5 | 10 | 14 | 24 | 0 | 0 | 2 | Anzahl der Revertanten pro Platte ([2]; TA100, +AS (rat liver S9), 1000 µg pro Platte, compound precipitated in S9 mix, spontaneous revertants subtracted): 96 Revertanten pro Platte; Anzahl der Revertanten pro Platte ([2]; TA100, -AS, 1000 µg pro Platte, spontaneous revertants subtracted): 1 Revertanten pro Platte; Mutagenität ([2]; TA100, in presence of metabolic activation system, result in words): schwach mutagen; Anzahl der Revertanten pro Platte ([3]; TA98, +AS (rat liver S9), 1000 µg pro Platte, compound precipitated in S9 mix, spontaneous revertants subtracted): 12 Revertanten pro Platte; Anzahl der Revertanten pro Platte ([3]; TA98, -AS, 1000 µg pro Platte, spontaneous revertants subtracted): 0 Revertanten pro Platte
